Results as given in the supplement of paper PMC10307832.

What was measured:
Test in all cases: relative viability (nuclei count vs DMSO), 5 days (fraction); higher = more cells survive
201T = system: 201T
In short: (§1)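 A single step with final 0.05% Triton X-100, 1% formaldehyde and 1 ug/ml Hoechst fixed the cells and stained nuclei 5 days after treatment. Lung cancer cell lines in 1536-well plates had been treated by pin tool the day after seeding with one drug alone or a fixed anchor-drug dose plus five library-drug doses (not always all listed) in √10 steps, and nuclei were counted on 4× images. Relative viability is the ratio of nuclei in treated wells to nuclei in vehicle wells, taken as the median of duplicate plates.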

COR-L 105 = system: COR-L 105
In short: as §1

ChaGo-K-1 = system: ChaGo-K-1
In short: as §1

EPLC-272H = system: EPLC-272H
In short: as §1

H3255 = system: H3255
In short: as §1

HCC-78 = system: HCC-78
In short: as §1

HCC-827 = system: HCC-827
In short: as §1

LC-2-ad = system: LC-2-ad
In short: as §1

LCLC-97TM1 = system: LCLC-97TM1
In short: as §1

NCI-H1666 = system: NCI-H1666
In short: as §1

NCI-H1915 = system: NCI-H1915
In short: as §1

NCI-H2087 = system: NCI-H2087
In short: as §1

NCI-H2126 = system: NCI-H2126
In short: as §1

NCI-H2347 = system: NCI-H2347
In short: as §1

NCI-H23 = system: NCI-H23
In short: as §1

NCI-H2405 = system: NCI-H2405
In short: as §1

NCI-H322M = system: NCI-H322M
In short: as §1

NCI-H520 = system: NCI-H520
In short: as §1

NCI-H647 = system: NCI-H647
In short: as §1

NCI-H650 = system: NCI-H650
In short: as §1

NCI-H661 = system: NCI-H661
In short: as §1

PC-14 = system: PC-14
In short: as §1

RERF-LC-KJ = system: RERF-LC-KJ
In short: as §1

C[C@@H]1CN(CC(=O)Nc2ccc3c(c2)Cc2cccc(-c4cc(=O)cc(N5CCOCC5)o4)c2S3)C[C@H](C)O1 + CS(=O)(=O)N1CCN(Cc2cc3nc(-c4cccc5[nH]ncc45)nc(N4CCOCC4)c3s2)CC1 [Pictilisib] (partner 1 µM)
relative viability (201T; first compound 0.04 µM): 0.668 | relative viability (201T; first compound 0.1265 µM): 0.65 | relative viability (201T; first compound 0.4 µM): 0.652 | relative viability (201T; first compound 4 µM): 0.647 | relative viability (COR-L 105; first compound 0.04 µM): 0.344 | relative viability (COR-L 105; first compound 0.1265 µM): 0.402 | relative viability (COR-L 105; first compound 0.4 µM): 0.375 | relative viability (COR-L 105; first compound 4 µM): 0.414 | relative viability (ChaGo-K-1; first compound 0.1265 µM): 0.633 | relative viability (ChaGo-K-1; first compound 0.4 µM): 0.577 | relative viability (ChaGo-K-1; first compound 4 µM): 0.686 | relative viability (EPLC-272H; first compound 0.04 µM): 0.272 | relative viability (EPLC-272H; first compound 0.1265 µM): 0.305 | relative viability (EPLC-272H; first compound 0.4 µM): 0.3 | relative viability (EPLC-272H; first compound 4 µM): 0.289 | relative viability (H3255; first compound 0.04 µM): 0.483 | relative viability (H3255; first compound 0.1265 µM): 0.535 | relative viability (H3255; first compound 0.4 µM): 0.452 | relative viability (H3255; first compound 4 µM): 0.446 | relative viability (HCC-78; first compound 0.04 µM): 0.208 | relative viability (HCC-78; first compound 0.1265 µM): 0.2 | relative viability (HCC-78; first compound 0.4 µM): 0.168 | relative viability (HCC-78; first compound 4 µM): 0.265 | relative viability (HCC-827; first compound 0.04 µM): 0.987 | relative viability (HCC-827; first compound 0.1265 µM): 1.03 | relative viability (HCC-827; first compound 0.4 µM): 1.22 | relative viability (HCC-827; first compound 4 µM): 0.995 | relative viability (LC-2-ad; first compound 0.04 µM): 1.12 | relative viability (LC-2-ad; first compound 0.1265 µM): 0.43 | relative viability (LC-2-ad; first compound 0.4 µM): 0.29 | relative viability (LC-2-ad; first compound 4 µM): 0.537 | relative viability (LCLC-97TM1; first compound 0.1265 µM): 0.191 | relative viability (LCLC-97TM1; first compound 0.4 µM): 0.144 | relative viability (LCLC-97TM1; first compound 4 µM): 0.18 | relative viability (NCI-H1666; first compound 0.04 µM): 0.444 | relative viability (NCI-H1666; first compound 0.1265 µM): 0.298 | relative viability (NCI-H1666; first compound 0.4 µM): 0.439 | relative viability (NCI-H1666; first compound 4 µM): 0.29 | relative viability (NCI-H1915; first compound 0.04 µM): 0.888 | relative viability (NCI-H1915; first compound 0.1265 µM): 0.961 | relative viability (NCI-H1915; first compound 0.4 µM): 0.97 | relative viability (NCI-H1915; first compound 4 µM): 0.774 | relative viability (NCI-H2087; first compound 0.04 µM): 1.05 | relative viability (NCI-H2087; first compound 0.1265 µM): 0.806 | relative viability (NCI-H2087; first compound 0.4 µM): 1.02 | relative viability (NCI-H2087; first compound 4 µM): 0.541 | relative viability (NCI-H2126; first compound 0.04 µM): 0.536 | relative viability (NCI-H2126; first compound 0.1265 µM): 0.49 | relative viability (NCI-H2126; first compound 0.4 µM): 0.459 | relative viability (NCI-H2126; first compound 4 µM): 0.487 | relative viability (NCI-H2347; first compound 0.04 µM): 0.961 | relative viability (NCI-H2347; first compound 0.1265 µM): 0.577 | relative viability (NCI-H2347; first compound 0.4 µM): 0.747 | relative viability (NCI-H2347; first compound 4 µM): 0.313 | relative viability (NCI-H23; first compound 0.04 µM): 0.448 | relative viability (NCI-H23; first compound 0.1265 µM): 0.499 | relative viability (NCI-H23; first compound 0.4 µM): 0.483 | relative viability (NCI-H23; first compound 4 µM): 0.543 | relative viability (NCI-H2405; first compound 0.04 µM): 0.414 | relative viability (NCI-H2405; first compound 0.1265 µM): 0.461 | relative viability (NCI-H2405; first compound 0.4 µM): 0.358 | relative viability (NCI-H2405; first compound 4 µM): 0.406 | relative viability (NCI-H322M; first compound 0.04 µM): 0.365 | relative viability (NCI-H322M; first compound 0.1265 µM): 0.506 | relative viability (NCI-H322M; first compound 0.4 µM): 0.452 | relative viability (NCI-H322M; first compound 4 µM): 0.565 | relative viability (NCI-H520; first compound 0.04 µM): 0.329 | relative viability (NCI-H520; first compound 0.1265 µM): 0.281 | relative viability (NCI-H520; first compound 0.4 µM): 0.31 | relative viability (NCI-H520; first compound 4 µM): 0.374 | relative viability (NCI-H647; first compound 0.04 µM): 0.258 | relative viability (NCI-H647; first compound 0.1265 µM): 0.397 | relative viability (NCI-H647; first compound 0.4 µM): 0.204 | relative viability (NCI-H647; first compound 4 µM): 0.393 | relative viability (NCI-H650; first compound 0.04 µM): 0.828 | relative viability (NCI-H650; first compound 0.1265 µM): 0.886 | relative viability (NCI-H650; first compound 0.4 µM): 0.89 | relative viability (NCI-H650; first compound 4 µM): 0.806 | relative viability (NCI-H661; first compound 0.04 µM): 0.408 | relative viability (NCI-H661; first compound 0.1265 µM): 0.381 | relative viability (NCI-H661; first compound 0.4 µM): 0.381 | relative viability (NCI-H661; first compound 4 µM): 0.448 | relative viability (PC-14; first compound 0.04 µM): 0.685 | relative viability (PC-14; first compound 0.1265 µM): 0.629 | relative viability (PC-14; first compound 0.4 µM): 0.687 | relative viability (PC-14; first compound 4 µM): 0.588 | relative viability (RERF-LC-KJ; first compound 0.04 µM): 0.591 | relative viability (RERF-LC-KJ; first compound 0.1265 µM): 0.531 | relative viability (RERF-LC-KJ; first compound 0.4 µM): 0.523 | relative viability (RERF-LC-KJ; first compound 4 µM): 0.487
